Experimental data taken from US11786555B2, “RAR selective agonists in combination with immune modulators for cancer immunotherapy” (IO THERAPEUTICS, INC., priority 2017, dated 2023).

Legend:
CD4+ T cells = assay: in vivo T cell differentiation in mice (blood and spleen); parameters: species or system mouse; conditions: 100 μg every other day for 10 days
Description: To expand on the finding above, the in vivo effects of a RARα agonist on T cell differentiation was evaluated in a mouse model. Mice were treated with 100 μg of compound IRX5183 or an equivalent volume of DMSO (vehicle control) every other day for 10 days. Lymphocytes from the blood and spleen were then isolated and FoxP3 expression in CD4^+ T cells was assessed.

[1] = tested on: H929 Luc+ cells with WT or Smo-KO stroma; assay: subcutaneous xenograft model of MM-niche interactions, bioluminescence; type: in vivo, mouse
Description: FIG. 9 depicts bioluminescent images of mice showing tumor burden during 4 weeks of treatment with IRX (10 mg/kg), BTZ (0.5 mg/kg), or the combination. Anterior tumors consisted of a combination of MM.1S luciferase^+ cells and Smo^FI/FI BM stroma cells transduced with a control vector (WT BM stroma). Posterior tumors consisted of a combination of MM.1S luciferase^+ cells and Smo^FI/FI BM stroma cells transduced with Cre-recombinase (Smo KO BM stroma).
FIG. 10 depicts the fold change in bioluminescence (photons/second) of tumors during 4 weeks of treatment. The change in bioluminescence for each tumor […].
Mouse xenografts. 1×10^6 H929 Luc+ cells and 1×10^6 mouse BM stromal cells were resuspended in 100 μl […]®, diluted with RPMI (1:1), and injected subcutaneously into 16-week-old male NSG mice. After 4 days, treatment with BTZ (0.5 mg/kg i.p. twice weekly) and IRX (10 mg/kg i.p. daily) was initiated. Tumor burden was assessed by bioluminescence using the In Vivo Imaging System (PerkinElmer). For imaging, mice were exposed to 120 mg/kg D-luciferin via intraperitoneal injection […] before imaging and were anesthetized using isoflurane. Images were analyzed with Living Image Software, version 2.5 (PerkinElmer), and data were quantified as photons/second.
To study to what extent an RA-low environment created by the BM stroma and enhanced by MM cells via paracrine Hedgehog signaling contributes to BTZ resistance, a xenograft model of MM-niche interactions was developed. Each mouse carried 2 subcutaneous tumors consisting of H929 Luc+ cells and either WT (anterior tumors) or Smo-KO stroma (posterior tumors). Mice were treated with IRX (10 mg/kg i.p. daily), BTZ (0.5 mg/kg i.p. twice weekly), or a combination of both. The growth of tumors bearing WT or Smo-KO stroma was not different in untreated or IRX-treated groups (FIGS. 9 and 10). […] While some tumors in the treatment group receiving combined IRX and BTZ appeared to have regressed completely, even after anatomical study, this was not the case for all the mice in this group.

H929 Luc+ cells = assay: systemic MM xenograft, bioluminescence; type: in vivo, mouse; conditions: 4 weeks
Description: FIG. 6 depicts bioluminescent images of systemic MM xenografts. Following engraftment of H929 Luc+ cells, mice were treated with IRX (n=4), BTZ (n=5), or a combination of both (n=5) for 4 weeks. Data represent the mean±SEM of the fold change in bioluminescence (photons/second) from day 0.
For the systemic MM model, 2×10^6 Luc+/GFP+ H929 cells were injected via the tail vein into 16-week-old male NSG mice. After engraftment, as determined by an exponential increase in bioluminescence, mice were treated with BTZ (0.5 mg/kg i.p.) twice weekly and with IRX (10 mg/kg) once daily. Tumor burden was assessed by bioluminescence, as above.
To test whether retinoids can enhance BTZ activity in MM, a systemic MM xenograft was developed by injecting 2×10^6 H929 luciferase+ (Luc+) cells via the tail vein of non-obese, diabetic, severe combined immunodeficiency IL-2 receptor y-KO (NSG) mice. The animals were randomized to receive IRX, BTZ, or a combination of both, and disease burden was followed weekly by bioluminescence imaging (FIG. 6).

In the case of `CC1(C)CCC(C)(C)c2c1cc(C(=O)Nc1cc(F)c(C(=O)O)c(F)c1)c(O)c2Cl` [IRX5183], the “Foxp3+ Expression” value (CD4+ T cells; Blood) is reported as 4.3%, the “Foxp3+ Expression” value (CD4+ T cells; Spleen) is reported as 25% and the “growth of tumors bearing WT versus Smo-KO stroma” value ([1]; IRX 10 mg/kg i.p. daily) is reported as “not different”. The “tumor response (bioluminescence)” value ([1]; combination of IRX and BTZ, WT or Smo-KO stroma) was “significant and equivalent response, regardless of the phenotype of the stromal compartment”, the “disease burden (bioluminescence)” value (H929 Luc+ cells; combination of IRX 10 mg/kg daily and BTZ 0.5 mg/kg twice weekly) was “significant (P<0.01) decrease in disease burden” and the “tumor burden (bioluminescence)” value (H929 Luc+ cells; monotherapy, BTZ 0.5 mg/kg i.p. twice weekly, IRX 10 mg/kg once daily) was “decrease in tumor burden compared with untreated mice”.
